Assay results from patent US20230348362A1, “LIPID COMPOUNDS AND LIPID NANOPARTICLE COMPOSITIONS” (Suzhou Abogen Biosciences Co., Ltd., priority 2021, published 2023).

Experiments:
Type in all cases: physicochemical
[1] = Encapsulation efficiency of lipid nanoparticles, Quant-it Ribogreen RNA assay; conditions: LNP of lipid/DSPC/cholesterol/PEG-lipid 50:10:38.5:1.5 encapsulating hEPO mRNA
Method: (§1) Briefly, a cationic lipid provided herein, DSPC, cholesterol, and PEG-lipid were solubilized in ethanol at a molar ratio of 50:10:38.5:1.5, and mRNA were diluted in 10 to 50 mM citrate buffer, pH=4. The LNPs were prepared at a total lipid to mRNA weight ratio of approximately 10:1 to 30:1 by mixing the ethanolic lipid solution with the aqueous mRNA solution at a volume ratio of 1:3 using a microfluidic apparatus, total flow rate ranging from 9-30 mL/min. Ethanol were thereby removed and replaced by DPBS using dialysis. Finally, the lipid nanoparticles were filtered through a […] sterile filter.
(§2) Lipid nanoparticle size were determined by dynamic light scattering using a Malvern Zetasizer Nano ZS (Malvern UK) using a […] backscatter detection mode. The encapsulation efficiency of lipid nanoparticles were determined using a Quant-it Ribogreen RNA quantification assay kit (Thermo Fisher Scientific, UK) according to the manufacturer's instructions.

[2] = Lipid nanoparticle size and polydispersity by dynamic light scattering; conditions: LNP of lipid/DSPC/cholesterol/PEG-lipid 50:10:38.5:1.5 encapsulating hEPO mRNA
Method: as §1, §2

[3] = Apparent pKa of LNP formulations, TNS fluorescence assay; conditions: LNP cationic lipid/DSPC/cholesterol/DMG-PEG 50/10/38.5/1.5 mol %
Method: As reported in literature, the apparent pKa of LNP formulations correlates with the delivery efficiency of LNPs for nucleic acids in vivo. The apparent pKa of each formulation was determined using an assay based on fluorescence of 2-(p-toluidino)-6-napthalene sulfonic acid (TNS). LNP formulations comprising of cationic lipid/DSPC/cholesterol/DMG-PEG (50/10/38.5/1.5 mol %) in PBS were prepared as described above. TNS was prepared as a 300 μM stock solution in distilled water. LNP formulations were diluted to 0.1 mg/mL total lipid in 3 mL of buffered solutions containing 50 mM sodium citrate, 50 mM sodium phosphate, 50 mM sodium borate, and 30 mM sodium chloride where the pH ranged from 3 to 9. An aliquot of the TNS solution was added to give a final concentration of […] and following vortex mixing fluorescence intensity was measured at room temperature in a Molecular Devices Spectramax iD3 spectrometer using excitation and mission wavelengths of 325 nm and 435 nm. A sigmoidal best fit analysis was applied to the fluorescence data and the pKa value was measured as the pH giving rise to half-maximal fluorescent intensity.

Structure (SMILES)	Encapsulation Efficiency [1] [%]	polydispersity [2]	size (nm) [2] [nm]	Apparent Pka [3]
CCCCCCCCC(CCCCCC)COC(=O)CCCCCN(CCO)CCN(CCCCCC(=O)OCC(CCCCCC)CCCCCCCC)C1CCCCCC1 (stereo not shown) [Compound 24]	93.90	0.114	57.78	6.162
CCCCCCCCC(CCCCCCCC)COC(=O)CCCCCN(CCNc1c(N(C)C)c(=O)c1=O)CCN(CCCCCC(=O)OCC(CCCCCCCC)CCCCCCCC)C1CCC1 [Compound 85]	93.27	0.096	67.44	6.126
CCCCCCCCC(CCCCCCCC)COC(=O)CCCCCN(CCO)CCN(CCCCCC(=O)OCC(CCCCCCCC)CCCCCCCC)C1CCOCC1 [Compound 28]	92.4	0.045	62.35	6.686
CCCCCCCCC(CCCCCCCC)COC(=O)CCCCCN(CCO)CCN(CCCCCCOC(=O)C(CCCCCCCC)CCCCCCCC)C1CCC1 [Compound 84]	91.88	0.097	59.91	6.117
CCCCCCCCC(CCCCCCCC)COC(=O)CCOCCN(CCO)CCN(CCOCCC(=O)OCC(CCCCCCCC)CCCCCCCC)C1CCCCC1 [Compound 113]	92.93	0.012	89.42	6.364
CCCCCCCCC(CCCCCCCC)CC(=O)NCCCCCN(CCN(CCO)CCCCCOC(=O)CC(CCCCCCCC)CCCCCCCC)C1CCCCC1 [Compound 73]	92.38	0.049	88.45	6.597
CCCCCCCC/C=C\CCCCCCCC(=O)OCCCCCN(CCN(CCO)CCCCCC(=O)OCC(CCCCCCCC)CCCCCCCC)C1CCCCC1 [Compound 109]	92.54	0.032	78.27	6.348
CCCCCCCCC(CCCCCCCC)CNC(=O)CCCCCN(CCN(CCCCO)CCCCCC(=O)OCC(CCCCCCCC)CCCCCCCC)C1CCC1 [Compound 77]	92.71	0.006	84.87	6.485
CCCCCCCCCCCC(=O)OCCCCCN(CCN(CCO)CCCCCOC(=O)CC(CCCCCCCC)CCCCCCCC)C1CC1 [Compound 91]	87.92	0.115	64.49	6.042
CCCCCCCCC(CCCCCC)COC(=O)CCCCCN(CCO)CCN(CCCCCC(=O)OCC(CCCCCC)CCCCCCCC)C1CCCC1 (stereo not shown) [Compound 8]	95.8	0.136	65.15	6.401
CCCCCCCCC(CCCCCCCC)COC(=O)CCCCCN(CCO)CCN(CCCCCC(=O)OCC(CCCCCCCC)CCCCCCCC)C1CCCCC1C (stereo not shown) [Compound 34]	87.2	0.05	55.14	5.485
CCCCCCCCCCCC(=O)OCCCCCN(CCN(CCO)CCCCCOC(=O)CC(CCCCCCCC)CCCCCCCC)C1CCCCC1 [Compound 57]	91.7	0.044	79.95	6.509
CCCCCCCCC(CCCCCCCC)COC(=O)CCCCCN(CCO)CCN(CCCCCC(=O)OCC(CCCCCCCC)CCCCCCCC)C1CCC(C(F)(F)F)CC1 (stereo not shown) [Compound 29]	93.5	0.09	59.02	6.073
CCCCCCCCC(CCCCCC)COC(=O)CCCCCN(CCO)CCN(CCCCCC(=O)OCC(CCCCCC)CCCCCCCC)C1CCC1 (stereo not shown) [Compound 7]	96.5	0.06	72.78	6.427
CCCCCCCCCOC(=O)CCCCCN(CCN(CCO)CCCCCC(=O)OCC(CCCCCCCC)CCCCCCCC)C1CCCCC1 [Compound 102]	90.14	0.082	77.17	6.407
CCCCCCCCC(CCCCCCCC)CNC(=O)CCCCCN(CCNc1c(NC)c(=O)c1=O)CCN(C)CCCCCC(=O)OCC(CCCCCCCC)CCCCCCCC [Compound 96]	97.00	0.087	57.20	7.287
CCCCCCCCC(CCCCCCCC)COC(=O)CCCCCN(C)C1CCC(N(CCO)CCCCCC(=O)OCC(CCCCCCCC)CCCCCCCC)CC1 (stereo not shown) [Compound 64]	97.95	0.177	81.36	7.262

Continued, values first:

Encapsulation Efficiency [1] [%]	polydispersity [2]	size (nm) [2] [nm]	Apparent Pka [3]	Structure (SMILES)
88.11	0.128	63.69	6.475	CCCCCCCC(=O)OCC(CCCCN(CCO)CCN(CCCCC(COC(=O)CCCCCCC)COC(=O)CCCCCCC)C1CCCCC1)COC(=O)CCCCCCC [Compound 141]
88.41	0.069	96.11	6.984	CCCCCCCCC(CCCCCC)CNC(=O)CCCCCN(CCCCN(CCO)CCCCC(COC(=O)CCCCCCC)COC(=O)CCCCCCC)C1CCCCCC1 (stereo not shown) [Compound 198]
91.77	0.090	69.05	6.226	CCCCCCCCC(CCCCCCCC)COC(=O)CCCCCN(CCO)CCN(CCCCCOC(=O)N(CCCCCCCC)CCCCCCCC)C1CCCCC1 [Compound 127]
88.68	0.035	67.07	6.566	CCCCCCCCC(CCCCCC)CNC(=O)CCCCCCCN(CCO)CCN(CCCCC(COC(=O)CCCCCCC)COC(=O)CCCCCCC)C1CCCC1 (stereo not shown) [Compound 234]
85.65	0.027	104.1	6.748	CCCCCCCCC(CCCCCC)CNC(=O)CCCCCN(CCCCCO)CCN(CCCCC(COC(=O)CCCCCCC)COC(=O)CCCCCCC)C1CCCC1 (stereo not shown) [Compound 224]
91.69	0.139	72.88	7.617	CCCCCCCCC(CCCCCCCC)CNC(=O)CCCCCN(CCCCN(CCO)CCCCC(COC(=O)CCCCCCC)COC(=O)CCCCCCC)C1CCC1 [Compound 186]
78.17	0.16	131.9	6.874	CCCCCCCC(=O)OCC(CCCCN(CC=C(C)C)CCCCN(CCO)CCCCC(COC(=O)CCCCCCC)COC(=O)CCCCCCC)COC(=O)CCCCCCC [Compound 203]
94.58	0.152	59.28	6.336	CCCCCCCCC(CCCCCCCC)COC(=O)CCCCCN(CCO)CCN(CC=C(C)C)CCOCCC(=O)OCC(CCCCCCCC)CCCCCCCC [Compound 123]
95.18	0.066	82.86	6.552	CCCCCCCCC(CCCCCCCC)COC(=O)CCCCCN1CCC(N(CCO)CCCCC(COC(=O)CCCCCCC)COC(=O)CCCCCCC)CC1 [Compound 261]
89.57	0.071	70.67	6.28	CCCCCCCCC(CCCCCC)CNC(=O)CCCCCN(CCO)CCN(CCCCC(COC(=O)CCCCCCC)COC(=O)CCCCCCC)C1CC1 (stereo not shown) [Compound 155]
92.04	0.042	77.73	6.849	CCCCCCCCC(CCCCCC)CNC(=O)CCCCN(CCO)CCN(CCCCC(COC(=O)CCCCCCC)COC(=O)CCCCCCC)C1CCCCCC1 (stereo not shown) [Compound 229]
95.04	0.112	88.09	6.674	CCCCCCCCC(CCCCCC)COC(=O)CCCCCN(CC)CCN(CCO)CCCCC(COC(=O)CCCCCCC)COC(=O)CCCCCCC (stereo not shown) [Compound 157]
92.26	0.047	61.57	6.212	CCCCCCCCC(CCCCCCCC)COC(=O)CCCCCN(CC=C(C)C)CCN(CCCCCC(=O)OCC(CCCCCCCC)CCCCCCCC)C1CCC(O)CC1 (stereo not shown) [Compound 126]
87.11	0.101	56.95	6.061	CCCCCCCCC(CCCCCC)COC(=O)CCCCCN(CCO)CCN(CCCCC(COC(=O)CCCCCCC)COC(=O)CCCCCCC)C1CC1 (stereo not shown) [Compound 154]
